By Emax is commonly meant the greatest response seen or fitted, relative to the assay's reference. A word on the EC50: it is the midpoint of the concentration-response curve. Broadly, the Ki is the equilibrium dissociation constant of an inhibitor or competing ligand from its target. As a reminder, the melting point is the temperature, or range, at which the solid turns liquid. The Kd is the free concentration of one partner at which half of the binding sites on the other are occupied at equilibrium, for simple one-to-one binding.

Read-outs that look alike come from different tables or passages of the source. A value given as a limit tells only on which side of the number the result lay.

The target in data set [1] is T1, human 5-HT2C receptor (Homo sapiens, UniProt P28335).
T1 sequence (P28335 33-458): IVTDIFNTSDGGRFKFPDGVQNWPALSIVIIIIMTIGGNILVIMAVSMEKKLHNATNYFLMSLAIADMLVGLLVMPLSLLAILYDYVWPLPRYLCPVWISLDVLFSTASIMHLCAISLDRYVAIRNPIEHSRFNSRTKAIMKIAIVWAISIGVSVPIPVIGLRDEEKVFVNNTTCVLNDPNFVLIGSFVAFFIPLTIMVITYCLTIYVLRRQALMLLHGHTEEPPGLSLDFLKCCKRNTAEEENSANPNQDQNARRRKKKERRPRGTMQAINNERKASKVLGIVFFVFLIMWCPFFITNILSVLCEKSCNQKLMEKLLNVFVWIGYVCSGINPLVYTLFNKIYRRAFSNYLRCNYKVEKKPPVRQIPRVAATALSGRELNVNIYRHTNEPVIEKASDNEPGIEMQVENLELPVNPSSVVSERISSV
Description: Calcium mobilization (FLIPR) in CHO cells stably expressing the human 5-HT2C receptor. To be noted: for Emax: CHO, read-out: 5-HT2C Function EMax (%); for EC50: calcium mobilization, h5-HT2C CHO cells, read-out: 5-HT2C Function EC50. It is filed as cell-based. In general terms: Calcium assays in cells follow changes in intracellular calcium, usually with a dye or a luminescent sensor.

Data set [2] deals with T2, human 5-hydroxytryptamine-2C (h5-HT2C) receptor (Homo sapiens, UniProt P28335).
T2 construct: expressed in transfected cells; host or cells: CHO (Chinese Hamster Ovary) cells; membrane preparation
T2 sequence (P28335 33-458): T1 sequence (P28335 33-458)
Kind of data set: [125I]DOI binding to membranes of CHO cells expressing the human 5-HT2C receptor.

Where [3] appears, read: read-out: 5-HT2C Binding Ki avg.

On to `I.NCc1cc2cc(Cl)cc(-c3ccccc3)c2o1` [Compound 1, [(5-chloro-7-phenyl-1-benzofuran-2-yl)methyl]amine], for which the melting point is > 225 °C. For the same compound, in data set [1], the Emax was found to be 70% and the EC50 was 200 to 2000 nM. Besides, the Ki in data set [2] (setting [3]) fell in the range of 10 to 100 nM.
Turning to `NCc1cc2cc(Cl)cc(-c3ccccc3F)c2o1` [Compound 2, {[5-chloro-7-(2-fluorophenyl)-1-benzofuran-2-yl]methyl}amine], in data set [1], the Emax was 80% and the EC50 fell in the range of 200 to 2000 nM. Further, the Ki in data set [2] (setting [3]) was 1 to 10 nM.
Turning to `NCc1cc2cc(Cl)cc(-c3ccccc3Cl)c2o1` [Compound 3, {[5-chloro-7-(2-chlorophenyl)-1-benzofuran-2-yl]methyl}amine], in data set [1], the Emax amounted to 100% and the EC50 was < 10 nM.
The matching figures for `Cc1ccccc1-c1cc(Cl)cc2cc(CN)oc12` [Compound 4, {[5-chloro-7-(2-methylphenyl)-1-benzofuran-2-yl]methyl}amine]: 90% and 10 to 200 nM.
Regarding `COc1ccccc1-c1cc(Cl)cc2cc(CN)oc12` [Compound 5, {[5-chloro-7-(2-methoxyphenyl)-1-benzofuran-2-yl]methyl}amine], in data set [1], the Emax was found to be 90% and the EC50 was 10 to 200 nM. In data set [2] (setting [3]), the Ki was 1 to 10 nM.
Regarding `NCc1cc2cc(Cl)cc(-c3ccccc3C(F)(F)F)c2o1` [Compound 6, ({5-chloro-7-[2-(trifluoro methyl)phenyl]-1-benzofuran-2-yl}methyl)amine], the melting point is 215 to 218 °C (dec.). In data set [1], the Emax is 90% and the EC50 lay within 200 to 2000 nM. Besides, the Ki in data set [2] (setting [3]) is 10 to 100 nM.
Regarding `NCc1cc2cc(F)cc(-c3c(Cl)cccc3Cl)c2o1` [Compound 7, {[7-(2,6-dichlorophenyl)-5-fluoro-1-benzofuran-2-yl]methyl}amine], in data set [1], the Emax stood at 100% and the EC50 is < 10 nM. For the same compound, the Ki in data set [2] (setting [3]) was 0.01 to 1 nM.
For `Cc1ccccc1-c1cc(F)cc2cc(CN)oc12` [Compound 8, {[5-fluoro-7-(2-methylphenyl)-1-benzofuran-2-yl]methyl}amine], in data set [1], the Emax came out at 90% and the EC50 was < 10 nM. Moreover, the Ki in data set [2] (setting [3]) is 1 to 10 nM.
In the same order, the values of `NCc1cc2cc(F)cc(-c3ccc(Cl)cc3Cl)c2o1` [Compound 9, {[7-(2,4-dichlorophenyl)-5-fluoro-1-benzofuran-2-yl]methyl}amine] are 90%, < 10 nM and 0.01 to 1 nM.
With `COc1ccccc1-c1cc(F)cc2cc(CN)oc12` [Compound 10, 1-[5-fluoro-7-(2-methoxyphenyl)-1-benzofuran-2-yl]methanamine], the melting point is 128 to 130 °C. In data set [1], the Emax stood at 80% and the EC50 lay within 10 to 200 nM. Also, the Ki in data set [2] (setting [3]) was 1 to 10 nM.
Compound `NCc1cc2cc(F)cc(-c3cc(Cl)ccc3Cl)c2o1` [Compound 11, 1-[7-(2,5-dichlorophenyl)-5-fluoro-1-benzofuran-2-yl]methanamine] came in with a melting point of 245 to 247 °C. Besides, in data set [1], the Emax came out at 70% and the EC50 was < 10 nM. In addition, the Ki in data set [2] (setting [3]) fell in the range of 0.01 to 1 nM.
The compound `Cc1ccccc1-c1cccc2cc(CN)oc12` [Compound 12, 1-[7-(2-methylphenyl)-1-benzofuran-2-yl]methanamine] showed a melting point of 222 to 224 °C. For the same compound, in data set [1], the Emax worked out at 70% and the EC50 was < 10 nM. Further, the Ki in data set [2] (setting [3]) fell in the range of 1 to 10 nM.
Compound `Cc1cc(Cl)ccc1-c1cc(F)cc2cc(CN)oc12` [Compound 13, 1-[7-(4-chloro-2-methylphenyl)-5-fluoro-1-benzofuran-2-yl]methanamine] registered a melting point of 172 to 174 °C. Besides, in data set [1], the Emax came out at 80% and the EC50 fell in the range of 10 to 200 nM. Also, in data set [2] (setting [3]), the Ki fell in the range of 1 to 10 nM.
The matching figures for `Cc1ccc(Cl)cc1-c1cc(F)cc2cc(CN)oc12` [Compound 14, 1-[7-(5-chloro-2-methylphenyl)-5-fluoro-1-benzofuran-2-yl]methanamine]: 208 to 210 °C, 80%, 10 to 200 nM and 1 to 10 nM.
`NCc1cc2cccc(-c3c(Cl)cccc3Cl)c2o1` [Compound 15, 1-[7-(2,6-dichlorophenyl)-1-benzofuran-2-yl]methanamine] returned a melting point of 260 to 262 °C. Besides, in data set [1], the Emax came out at 90% and the EC50 is < 10 nM. The Ki in data set [2] (setting [3]) fell in the range of 0.01 to 1 nM.
For the compound `NCc1cc2ccc(Cl)c(-c3ccccc3Cl)c2o1` [Compound 16, 1-[6-chloro-7-(2-chlorophenyl)-1-benzofuran-2-yl]methanamine], the melting point is 208 to 210 °C. In data set [1], the Emax was 90% and the EC50 was < 10 nM. Moreover, the Ki in data set [2] (setting [3]) lay in the range of 0.01 to 1 nM.
Turning to `NCc1cc2ccc(F)c(-c3ccccc3Cl)c2o1` [Compound 17, 1-[7-(2-chlorophenyl)-6-fluoro-1-benzofuran-2-yl]methanamine], the melting point is > 250 °C.
`CSc1ccc2c(c1)C(N1CCN(C)CC1)Cc1ccccc1S2` (stereo not shown) [Methiothepin, reference compound]: the Ki in data set [2] (reference compounds, [125I]DOI displacement, h5-HT2C CHO membranes, read-out: Ki (95% confidence interval)) came to 4.6 nM.
With `COc1cc(CC(C)N)c(OC)cc1I` (stereo not shown) [[^125I] DOI, reference compound], the Kd in data set [2] (saturation binding with increasing concentrations of [125I]DOI, read-out: dissociation constant, KD) amounted to 0.4 nM.

The values above are taken from patent US7368477B2, “Benzofuranyl alkanamine derivatives and uses thereof” (Wyeth, priority 2005, dated 2008).
